Assay results: PubChem BioAssay AID1117319 (Southern Research Institute, 2015)
Where “and” joins values, the source holds several entries; their conditions need not be identical. Equal values may be shown once. Results filed as inconclusive are left out.

Each compound was assayed against Virion infectivity factor (Human immunodeficiency virus type 1 group M subtype B (isolate BH10)) + Virion infectivity factor (Human immunodeficiency virus type 1 group M subtype B (isolate BRU/LAI)) + Virion infectivity factor (Human immunodeficiency virus type 1 group M subtype B (isolate PCV12)) + Virion infectivity factor (Human immunodeficiency virus type 1 group M subtype B (isolate HXB2)) + DNA dC->dU-editing enzyme APOBEC-3G (Homo sapiens) (UniProt P69720+P69721+P69722+P69723+Q9HC16) (assay: HIV-1 Vif–A3G interaction blockers – biochemical, TR-FRET, GST-Vif 1-94, biotin-A3G peptide, dose response retest, primary screen (AID 1117319;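 further: Vif residues 1-94 fused to GST binding biotinylated APOBEC3G peptide 110-148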)). Conditions: TR-FRET GST-Vif / biotin-A3G peptide binding.

SMILES | IC50
Nc1cc(N)nc(SCc2cc([N+](=O)[O-])cc3c2OCOC3)n1 | 74.1 µM
COc1cc(-c2ccc(Nc3ccccc3C(=O)O)c(OC)c2)ccc1Nc1ccccc1C(=O)O | 0.94 µM
Cc1cc(C(=O)O)ccc1-n1c(C)ccc1C | 5.16 µM
CCOC(=O)C(=O)NCc1ccc(/C=C2/N=C(C)C(C(=O)OCC)=C2O)o1 | 6.18 µM
O=c1c(O)cccc2cc(O)c(O)c(O)c12 | 1.03 µM
Cc1cc(O)c(Oc2cc(C)cc(O)c2O)c(O)c1 | 13.8 µM
c1coc(-c2nc3ccccc3nc2-c2ccco2)c1 | 1.39 µM
Cc1ccc(/C=C/C(=O)Nc2cccc(S(=O)(=O)N3CCOCC3)c2)o1 | 20.9 µM
COc1cc(C(=O)NCc2nnc(SCC(=O)Nc3nc4ccc(C)cc4s3)o2)cc(OC)c1OC | 45.3 µM
Cc1c(NC(=O)c2cc(-c3cccs3)on2)c(=O)n(-c2ccccc2)n1C | 39.9 µM
CCOc1ccc2[nH]c(=O)c(CN(Cc3nnnn3Cc3ccco3)C3CCCCC3)cc2c1 | 4.82 µM
Cc1cc(C)c([N+](=O)[O-])cc1-c1ccc(/C=N/NC(=O)c2nonc2N)o1 | 52.7 µM
Oc1cc2c(cc1O)C1c3ccc(O)c(O)c3OCC1(O)C2 (stereo unspecified) | 0.46 µM
COc1ccc(-c2cc(-c3ccco3)[nH]c(=O)c2C#N)cc1 | 25.3 µM
COC(=O)Cn1ncn2c(cc3oc(C)cc32)c1=O | 71.6 µM
NC1=NC(=O)/C(=C\c2ccco2)S1 | 3.07 µM
C=C(C)C(=O)Nc1cccc(C2=NOC3(C2)C[C@H](C(N)=O)N(C(=O)COc2ccc(Cl)cc2)C3)c1 (stereo partly specified) | 1.28 µM
CCOC(=O)c1c2c(n(Cc3ccccc3)c1C)C(=O)C(=O)c1ccccc1-2 | 79.5 µM
Fc1cccc(-c2cc3nc4c(c(NCc5ccco5)n3n2)CCCC4)c1 | 50.8 µM

SMILES | IC50
O=[N+]([O-])c1ccc(Cl)c(S(=O)(=O)Nc2cccc(S(=O)(=O)NC3=NCCC3)c2)c1 | 5.64 µM
O=[N+]([O-])c1cc2oc3c(c2c(C=NCc2ccncc2)c1O)CCCC3 | 4.52 µM
COc1ccc(N=C2S/C(=C\c3ccc(C)o3)C(=O)N2CC(C)C)cc1 | 39.7 µM
O=[N+]([O-])c1c(Nc2ccccc2O)cc(Cl)c2nonc12 | 9.34 µM
c1ccc2c(c1)CCCN2Cc1nnc2n1CCCCC2 | 31.5 µM
O=C(NC1CCC(C(=O)O)CC1)OCc1ccccc1 (stereo unspecified) | 12.4 µM
COc1ccc(C2CC(=O)Nc3cc(C)c(C)cc32)c(OC)c1OC (stereo unspecified) | 63.5 µM
O=C1C=C(c2c(O)ccc3ccccc23)c2ccccc2C1=O | 2.54 µM
CCOC(=O)c1nn(-c2ccc(Cl)cc2Cl)c(=N)c(C#N)c1C | 12.7 µM
Oc1cccc(C=NCc2ccccc2)c1O | 1.9 µM
NN=C1C(Cl)=C(Cl)C(Cl)=C1Cl | 10.6 µM
O=S(=O)(c1ccc2nc(-c3ccco3)c(-c3ccco3)nc2c1)N1CCOCC1 | 6.38 µM and 3.81 µM
CSc1ccccc1NC(=O)c1noc2c1CCC2 | 18.4 µM
c1ccc2c(c1)NCC1CCCN21 (stereo unspecified) | 38.1 µM
Cc1cc(-c2csc(NC(=O)c3ccc(C#N)cc3)n2)c(C)n1Cc1ccco1 | 3.35 µM
CNCc1ccccc1Sc1ccc(O)c(O)c1 | 2.64 µM
Brc1c(CSc2nnc(-c3ccco3)o2)nc2ccccn12 | 30.6 µM
CCCCn1c(SCC(=O)NCc2ccco2)nc2ccc(N3CCOCC3)cc2c1=O | 12.5 µM
O=C(CSc1nnc(-c2ccco2)c(-c2ccco2)n1)Nc1ccccc1 | 3.12 µM

SMILES | IC50
O=C1/C(=C\c2ccco2)CCC/C1=C\c1ccco1 | 3.05 µM
CCN(CC)c1ccc2c(c1)CCCN2 | 1.17 µM
C[c-]1[c-](C)[c-](C)[c-](C)[c-]1C.[Fe].c1cc2nccc(N3CCCC3)[c-]2c1 (stereo unspecified) | 2.03 µM
COc1ccc(O)c(N)c1 | 0.93 µM
COC(=O)Cc1cc(=O)n(-c2nc3ccccc3[nH]2)[nH]1 | 21.6 µM
CCNc1ccc(Br)cc(C(=O)/C=C/c2ccc(Cl)cc2)c1=O | 7.05 µM
CCSC1=C(C#N)C(c2cccs2)C(C(=O)OC)=C(C)N1 (stereo unspecified) | 75.5 µM
CCOC(=O)C(C(=O)OCC)c1cc(Br)c2noc3c2c1C(=O)c1ccccc1-3 | 2.45 µM
CN1CCN(C2=C(Cl)C(=O)C(c3cnc(N4CCCCC4)s3)=C(Cl)C2=O)CC1 | 2.5 µM
C=CCn1c(SCC(=O)NCCCC)nc2scc(-c3ccco3)c2c1=O | 20.4 µM
O=C1c2cccnc2C(Nc2ccccc2)N1Cc1ccco1 (stereo unspecified) | 22.9 µM
O=C1/C(=C/c2ccco2)SC(=S)N1c1cccnc1 | 1.49 µM
N#CC(C#N)=Cc1cccn1-c1ccc(C(=O)O)cc1 | 10.3 µM
Oc1cccc(/C=N/NC(=S)NCCN2CCOCC2)c1O | 12.4 µM
COC1=C(OC)C(=O)C(Sc2ccc3ccccc3c2)=CC1=O | 8.68 µM
CCc1cc(C=NC2CCCCC2)c(O)s1 | 77.7 µM
Cc1oc(-c2ccc(Cl)cc2)cc1-c1nn2c(-c3ccoc3C)nnc2s1 | 1.04 µM
O=C(Nc1ccccc1N1CCCC1)c1ccc(Br)o1 | 46.2 µM
